Reference: the supplement of paper PMC6045584
± gives the standard deviation of the averaged measurements.

compound: Cc1nc(Nc2n[nH]c3c2CN(C(=O)N[C@H](CN(C)C)c2ccccc2)C3(C)C)c2sccc2n1; experiment: surviving fraction relative to DMSO-only wells; higher = less growth inhibition; conditions: 0.5 nM; exposure time: 5 days
Summary of the method: (§1)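 Log-phase tumour cells were seeded at 250–500 per well in 384-well plates and, from 24 hours after seeding, exposed continuously for five days to inhibitors at 0.5, 1, 5, 10, 50, 100, 500 and 1000 nM. Surviving fraction is CellTiter-Glo luminescence normalised to the median of DMSO-only wells. Luminescence was measured after 10 minutes at room temperature, and only lines screened three times with replicate Pearson r >0.7 and median Z' >0.3 were kept.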

Q: For C33A CERVIX, which surviving fraction is on record?
A: 0.67 ± 0.035

Q: For CAL72 BONE, which surviving fraction is on record?
A: 1.04 ± 0.066

Q: With G292 BONE as the test system, how does the surviving fraction read?
A: 0.782 ± 0.028

Q: HCC1395 BREAST was tested. Which surviving fraction did it give?
A: 0.927 ± 0.18

Q: How did the surviving fraction turn out when HUO3N1 BONE was run?
A: 0.971 ± 0.018

Q: LNCAP PROSTATE was tested. Which surviving fraction did it give?
A: 0.773 ± 0.021

Q: SCC003 HEADNECK was tested. Which surviving fraction did it give?
A: 0.993 ± 0.094

same assay, conditions: 1 nM; exposure time: 5 days

Q: Which surviving fraction does the source give for C33A CERVIX here?
A: 0.62 ± 0.016

Q: CAL72 BONE was tested. Which surviving fraction did it give?
A: 0.993 ± 0.032

Q: How did the surviving fraction turn out when G292 BONE was run?
A: 0.642 ± 0.029

Q: Which surviving fraction does the source give for HCC1395 BREAST here?
A: 0.984 ± 0.06

Q: Which surviving fraction does the source give for HUO3N1 BONE here?
A: 0.942 ± 0.034

Q: Which surviving fraction does the source give for LNCAP PROSTATE here?
A: 0.632 ± 0.054

Q: With SCC003 HEADNECK as the test system, how does the surviving fraction read?
A: 1.05 ± 0.094

same assay, conditions: 5 nM; exposure time: 5 days

Q: C33A CERVIX was tested. Which surviving fraction did it give?
A: 0.298 ± 0.049

Q: How did the surviving fraction turn out when CAL72 BONE was run?
A: 0.691 ± 0.061

Q: G292 BONE was tested. Which surviving fraction did it give?
A: 0.42 ± 0.0074

Q: How did the surviving fraction turn out when HCC1395 BREAST was run?
A: 1.06 ± 0.013

Q: For HUO3N1 BONE, which surviving fraction is on record?
A: 0.853 ± 0.011

Q: With LNCAP PROSTATE as the test system, how does the surviving fraction read?
A: 0.215 ± 0.0067

Q: Which surviving fraction does the source give for SCC003 HEADNECK here?
A: 0.61 ± 0.043

same assay, conditions: 10 nM; exposure time: 5 days

Q: How did the surviving fraction turn out when C33A CERVIX was run?
A: 0.26 ± 0.024

Q: Which surviving fraction does the source give for CAL72 BONE here?
A: 0.556 ± 0.058

Q: How did the surviving fraction turn out when G292 BONE was run?
A: 0.376 ± 0.004

Q: How did the surviving fraction turn out when HCC1395 BREAST was run?
A: 1.11 ± 0.13

Q: How did the surviving fraction turn out when HUO3N1 BONE was run?
A: 0.781 ± 0.024

Q: With LNCAP PROSTATE as the test system, how does the surviving fraction read?
A: 0.196 ± 0.019

Q: With SCC003 HEADNECK as the test system, how does the surviving fraction read?
A: 0.418 ± 0.022

same assay, conditions: 50 nM; exposure time: 5 days

Q: With C33A CERVIX as the test system, how does the surviving fraction read?
A: 0.221 ± 0.011

Q: For CAL72 BONE, which surviving fraction is on record?
A: 0.435 ± 0.025

Q: For G292 BONE, which surviving fraction is on record?
A: 0.324 ± 0.014

Q: With HCC1395 BREAST as the test system, how does the surviving fraction read?
A: 0.964 ± 0.14

Q: With HUO3N1 BONE as the test system, how does the surviving fraction read?
A: 0.683 ± 0.015

Q: With LNCAP PROSTATE as the test system, how does the surviving fraction read?
A: 0.098 ± 0.017

Q: With SCC003 HEADNECK as the test system, how does the surviving fraction read?
A: 0.278 ± 0.029

same assay, conditions: 100 nM; exposure time: 5 days

Q: C33A CERVIX was tested. Which surviving fraction did it give?
A: 0.214 ± 0.024

Q: CAL72 BONE was tested. Which surviving fraction did it give?
A: 0.399 ± 0.011

Q: Which surviving fraction does the source give for G292 BONE here?
A: 0.287 ± 0.012

Q: With HCC1395 BREAST as the test system, how does the surviving fraction read?
A: 1.16 ± 0.26

Q: With HUO3N1 BONE as the test system, how does the surviving fraction read?
A: 0.625 ± 0.038

Q: With LNCAP PROSTATE as the test system, how does the surviving fraction read?
A: 0.097 ± 0.012

Q: How did the surviving fraction turn out when SCC003 HEADNECK was run?
A: 0.275 ± 0.028

same assay, conditions: 500 nM; exposure time: 5 days

Q: Which surviving fraction does the source give for C33A CERVIX here?
A: 0.146 ± 0.0049

Q: For CAL72 BONE, which surviving fraction is on record?
A: 0.194 ± 0.023

Q: For G292 BONE, which surviving fraction is on record?
A: 0.166 ± 0.0052

Q: With HCC1395 BREAST as the test system, how does the surviving fraction read?
A: 0.964 ± 0.15

Q: For HUO3N1 BONE, which surviving fraction is on record?
A: 0.462 ± 0.029

Q: With LNCAP PROSTATE as the test system, how does the surviving fraction read?
A: 0.0357 ± 0.0032

Q: For SCC003 HEADNECK, which surviving fraction is on record?
A: 0.227 ± 0.021

same assay, conditions: 1000 nM; exposure time: 5 days

Q: For C33A CERVIX, which surviving fraction is on record?
A: 0.0663 ± 0.009

Q: For CAL72 BONE, which surviving fraction is on record?
A: 0.0947 ± 0.0081

Q: G292 BONE was tested. Which surviving fraction did it give?
A: 0.0753 ± 0.0032

Q: HCC1395 BREAST was tested. Which surviving fraction did it give?
A: 0.961 ± 0.16

Q: With HUO3N1 BONE as the test system, how does the surviving fraction read?
A: 0.407 ± 0.0059

Q: How did the surviving fraction turn out when LNCAP PROSTATE was run?
A: 0.0227 ± 0.0029

Q: How did the surviving fraction turn out when SCC003 HEADNECK was run?
A: 0.183 ± 0.012

compound: CO[C@H]1C[C@@H]2CC[C@@H](C)[C@@](O)(O2)C(=O)C(=O)N2CCCC[C@H]2C(=O)O[C@H]([C@H](C)C[C@@H]2CC[C@@H](OCCO)[C@H](OC)C2)CC(=O)[C@H](C)/C=C(\C)[C@@H](O)[C@@H](OC)C(=O)[C@H](C)C[C@H](C)/C=C/C=C/C=C/1C [EVEROLIMUS]; experiment: as above; conditions: 0.5 nM; exposure time: 5 days
Summary of the method: as §1

Q: How did the surviving fraction turn out when C33A CERVIX was run?
A: 0.757 ± 0.058

Q: With CAL72 BONE as the test system, how does the surviving fraction read?
A: 0.967 ± 0.17

Q: For G292 BONE, which surviving fraction is on record?
A: 0.803 ± 0.0075

Q: With HCC1395 BREAST as the test system, how does the surviving fraction read?
A: 1.18 ± 0.041

Q: Which surviving fraction does the source give for HUO3N1 BONE here?
A: 0.751 ± 0.021

Q: For LNCAP PROSTATE, which surviving fraction is on record?
A: 0.679 ± 0.048

Q: How did the surviving fraction turn out when SCC003 HEADNECK was run?
A: 1.07 ± 0.043

same assay, conditions: 1 nM; exposure time: 5 days

Q: How did the surviving fraction turn out when C33A CERVIX was run?
A: 0.649 ± 0.06

Q: For CAL72 BONE, which surviving fraction is on record?
A: 0.87 ± 0.16

Q: Which surviving fraction does the source give for G292 BONE here?
A: 0.721 ± 0.038

Q: For HCC1395 BREAST, which surviving fraction is on record?
A: 1.08 ± 0.03

Q: With HUO3N1 BONE as the test system, how does the surviving fraction read?
A: 0.688 ± 0.011

Q: LNCAP PROSTATE was tested. Which surviving fraction did it give?
A: 0.544 ± 0.012

Q: With SCC003 HEADNECK as the test system, how does the surviving fraction read?
A: 1 ± 0.04

same assay, conditions: 5 nM; exposure time: 5 days

Q: For C33A CERVIX, which surviving fraction is on record?
A: 0.469 ± 0.017

Q: With CAL72 BONE as the test system, how does the surviving fraction read?
A: 0.707 ± 0.12

Q: G292 BONE was tested. Which surviving fraction did it give?
A: 0.518 ± 0.015

Q: With HCC1395 BREAST as the test system, how does the surviving fraction read?
A: 1.19 ± 0.025

Q: Which surviving fraction does the source give for HUO3N1 BONE here?
A: 0.655 ± 0.013

Q: Which surviving fraction does the source give for LNCAP PROSTATE here?
A: 0.409 ± 0.033

Q: With SCC003 HEADNECK as the test system, how does the surviving fraction read?
A: 1.04 ± 0.035

same assay, conditions: 10 nM; exposure time: 5 days

Q: With C33A CERVIX as the test system, how does the surviving fraction read?
A: 0.432 ± 0.0057

Q: Which surviving fraction does the source give for CAL72 BONE here?
A: 0.671 ± 0.1

Q: G292 BONE was tested. Which surviving fraction did it give?
A: 0.476 ± 0.024

Q: With HCC1395 BREAST as the test system, how does the surviving fraction read?
A: 0.998 ± 0.05

Q: How did the surviving fraction turn out when HUO3N1 BONE was run?
A: 0.632 ± 0.016

Q: With LNCAP PROSTATE as the test system, how does the surviving fraction read?
A: 0.404 ± 0.043

Q: For SCC003 HEADNECK, which surviving fraction is on record?
A: 0.961 ± 0.036

same assay, conditions: 50 nM; exposure time: 5 days

Q: C33A CERVIX was tested. Which surviving fraction did it give?
A: 0.355 ± 0.027

Q: For CAL72 BONE, which surviving fraction is on record?
A: 0.61 ± 0.056

Q: For G292 BONE, which surviving fraction is on record?
A: 0.433 ± 0.0098

Q: With HCC1395 BREAST as the test system, how does the surviving fraction read?
A: 1.02 ± 0.099

Q: HUO3N1 BONE was tested. Which surviving fraction did it give?
A: 0.624 ± 0.043

Q: For LNCAP PROSTATE, which surviving fraction is on record?
A: 0.285 ± 0.032

Q: With SCC003 HEADNECK as the test system, how does the surviving fraction read?
A: 0.953 ± 0.037

same assay, conditions: 100 nM; exposure time: 5 days

Q: Which surviving fraction does the source give for C33A CERVIX here?
A: 0.369 ± 0.028

Q: CAL72 BONE was tested. Which surviving fraction did it give?
A: 0.641 ± 0.057

Q: Which surviving fraction does the source give for G292 BONE here?
A: 0.436 ± 0.014

Q: HCC1395 BREAST was tested. Which surviving fraction did it give?
A: 1 ± 0.041

Q: Which surviving fraction does the source give for HUO3N1 BONE here?
A: 0.617 ± 0.042

Q: LNCAP PROSTATE was tested. Which surviving fraction did it give?
A: 0.288 ± 0.0055

Q: SCC003 HEADNECK was tested. Which surviving fraction did it give?
A: 0.94 ± 0.094

same assay, conditions: 500 nM; exposure time: 5 days

Q: For C33A CERVIX, which surviving fraction is on record?
A: 0.303 ± 0.051

Q: For CAL72 BONE, which surviving fraction is on record?
A: 0.576 ± 0.028

Q: G292 BONE was tested. Which surviving fraction did it give?
A: 0.408 ± 0.015

Q: With HCC1395 BREAST as the test system, how does the surviving fraction read?
A: 0.974 ± 0.026

Q: Which surviving fraction does the source give for HUO3N1 BONE here?
A: 0.581 ± 0.031

Q: How did the surviving fraction turn out when LNCAP PROSTATE was run?
A: 0.219 ± 0.0032

Q: With SCC003 HEADNECK as the test system, how does the surviving fraction read?
A: 0.923 ± 0.066

same assay, conditions: 1000 nM; exposure time: 5 days

Q: C33A CERVIX was tested. Which surviving fraction did it give?
A: 0.277 ± 0.015

Q: With CAL72 BONE as the test system, how does the surviving fraction read?
A: 0.608 ± 0.026

Q: G292 BONE was tested. Which surviving fraction did it give?
A: 0.405 ± 0.01

Q: How did the surviving fraction turn out when HCC1395 BREAST was run?
A: 0.951 ± 0.056

Q: For HUO3N1 BONE, which surviving fraction is on record?
A: 0.607 ± 0.023

Q: With LNCAP PROSTATE as the test system, how does the surviving fraction read?
A: 0.222 ± 0.0092

Q: Which surviving fraction does the source give for SCC003 HEADNECK here?
A: 0.92 ± 0.061
